Measured values published in US20200138727A1, “ENHANCED THERAPEUTIC AGENT AND NUCLEIC ACID DELIVERY VIA HDL OR RECONSTITUTED HDL NANOPARTICLES” (UNIVERSITY OF NORTH TEXAS HEALTH SCIENCE CENTER, priority 2017, published 2020).

Key:
[1] = system: DU-145 (prostate cancer) cells; test: Confocal / fluorescence lifetime microscopy of doxorubicin uptake from rHDL-Doxorubicin nanoparticles; format: cell-based
Method: The data presented in FIGS. 11-12 were obtained via fluorescence lifetime microscopy via the following protocols. Apo A-I was labeled with Alexa Fluor 647 (Fluorescent dye Excitation: 650 nm; Emission:665 nm), using Alexa Fluor™ 647 Antibody Labeling Kit (by Thermo Fisher) according to the manufacturer's protocol. The rHDL-Doxorubicin nanoparticles were prepared with the Alexa Fluor 647 labeled Apo A-I, using the cholate dialysis protocol. The DU-145 (prostate cancer) cells were treated with the rHDL-Doxorubicin nanoparticles at 37° C./5% CO2 and observed under confocal microscopy for uptake of doxorubicin. In order to inhibit the uptake, […] antibody was used to block the receptor activity.
For imaging, the cells were plated on custom glass bottom petri dishes. Before imaging, the cells were washed with PBS, and doped with several concentrations of free or rHDL-doxorubicin formulations. For SR-B1 receptor blocking, the DU-145 cells were incubated with antibodies for SR-B1 receptor for 30 minutes at 5% CO2 and 37° C. The cells were excited with a 470 nm diode at 70% power, and the emission imaged at 600 nm. […] For dual label experiments, the samples were excited at 470 nm and 630 nm, with a 520 nm long pass filter on channel 1 to observe DOX fluorescence, and a 647 nm long pass on filter on channel 2 to observe […] emission. […]

cancer cells = settings: encapsulated by HDL delivery particles; HDL receptor mediated mechanism (Lacko et al., 2002); cited from earlier work

COc1cccc2c1C(=O)c1c(O)c3c(c(O)c1C2=O)C[C@@](O)(C(=O)CO)C[C@@H]3O[C@H]1C[C@H](N)[C@H](O)[C@H](C)O1 [doxorubicin]
cellular localization of doxorubicin ([1]; DU-145 cells treated with rHDL-Doxorubicin nanoparticles, FIG. 11A, FIG. 12): released into the cell cytoplasm

CC(=O)O[C@H]1C(=O)[C@@]2(C)[C@H]([C@H](OC(=O)c3ccccc3)[C@]3(O)C[C@H](OC(=O)[C@H](O)[C@@H](NC(=O)c4ccccc4)c4ccccc4)C(C)=C1C3(C)C)[C@]1(OC(C)=O)CO[C@@H]1C[C@@H]2O [paclitaxel]
uptake by cancer cells (cancer cells): taken up by cancer cells

Alexa 647-conjugated Apo A-I: Apo A-I labeled with Alexa Fluor 647 fluorescent dye
cellular localization of labeled Apo A-I ([1]; DU-145 cells treated with rHDL-Doxorubicin nanoparticles prepared with labeled Apo A-I, FIG. 11B): only localized in the membrane of the cell and does not enter the cell
